Laboratory results: US20220023273A1, “METHODS FOR TREATING SYMPTOMS AND DISORDERS ASSOCIATED WITH LYSOSOMAL STORAGE DISEASES” (GENZYME CORPORATION, priority 2019, published 2022)
Values joined by “and” are separate entries in the source; they are usually repeats but may differ in a detail not shown here. Equal values may be shown once. Read-outs that look alike come from different tables or passages of the source.

Key:
Assay type in all cases: in vivo, human
[1] = GD3 clinical study: pharmacokinetics in plasma and CSF; conditions: for AUC: human, plasma, po, Day 1 (N = 5), read-out: AUC0_24 (mean ± SD)
Excerpt: Patients 18 years of age or older with a clinical diagnosis of GD3 and documented deficiency of acid beta-glucosidase activity having received treatment with ERT for at least 3 years and with imiglucerase (Cerezyme) at a stable monthly dose for at least 6 months prior to enrollment were included in the study. Patients must have reached the following GD therapeutic goals: hemoglobin level of ≥11.0 g/dL for females and ≥12.0 g/dL for males; platelet count ≥100 000/mm3; spleen volume <10 multiples of normal (MN), or total splenectomy (provided the splenectomy occurred >3 years prior to randomization); liver volume <1.5 MN; and no bone crisis and free of symptomatic bone disease such as bone pain attributable to osteonecrosis and/or pathological fractures within the last year. Patients must have GD3 featuring oculomotor apraxia (supranuclear gaze palsy) characterized by a horizontal saccade abnormality.
(§1) During the study patients were evaluated for safety and tolerability, CSF and plasma biomarkers (glucosylceramide, GL-1; glucosylsphingosine, lyso-GL1), pharmacokinetics, markers for systemic disease (spleen and liver volume measured by magnetic resonance imaging (MRI), platelet count, hemoglobin levels), indicia of interstitial lung disease (high resolution pulmonary computed tomography (CT)), and horizontal saccadic eye movement.
A second interim analysis was performed when the first 6 patients had reached 52-weeks of treatment, as described above in section (A). This analysis included Patients 1-5 as described in section (A), as well as new Patient 6. All six patients had L444P (1448T/C) homozygous Gaucher phenotype.

[2] = tested on: adult patients with Gaucher disease Type 3; assay: GD3 clinical study: horizontal and vertical saccadic eye movements; conditions: GD3, 15 mg/day oral + imiglucerase
Protocol: as §1
Quantification of horizontal and vertical saccadic eye movements (HSEM and VSEM, respectively) was performed in all 5 patients. In the five patients, mean peak velocity (PV) of horizontal rightward 150 saccades was 50.8°/s (+/−8.1°/s) at baseline and […] (+/−12.6°/s) at Week 26: and the mean PV of horizontal leftward 150 saccades was 44.7°/s (+/−17.9°/s) at baseline and 32.3°/s (+/−15.9°/s) at Week 26. […]
At 52 weeks, quantification of horizontal and vertical saccadic eye movements was performed in all six patients in a similar manner as described in section (A). However, it was determined that the methodology used to account for noise (e.g., caused by blinking or head movements) may have introduced bias into the results. The method of accounting for noise was therefore modified, and a set of control criteria were developed to assess validity of the datasets obtained by the eye movement reader.

[3] = tested on: adult patients with Gaucher disease Type 3; assay: GD3 clinical study: trail making test (TMT); conditions: GD3, 15 mg/day oral + imiglucerase
Excerpt: The trail making test (TMT) was used to evaluate cognitive function in the patients. The TMT is one of the most widely used neuropsychological tests and is included in most test batteries. The TMT is a diagnostic tool to assess general intelligence and cognitive dysfunctions (Tombaugh et al. [2004]; Cavaco et al. [2013]). In part A of the TMT, subjects are asked to connect a cluster of numbers in ascending order. This task is a combination of visual search and general visual and motor processing speed. Part B presents a sequence which alternates between numbers and letters. Subjects must actively switch between both categories when connecting them in ascending, but alternating order.
TMT-A evaluates mainly perceptual and psychomotor speed. TMT-B assesses more specifically mental flexibility and shifting abilities. TMT B minus TMT A score is used to remove the variance attributable to the graphomotor and visual scanning components of TMT A. This derived score reflects the unique task requirements of TMT B.

[4] = tested on: adult patients with Gaucher disease Type 3; assay: GD3 clinical study: resting-state fMRI connectivity; conditions: Patient 5 likely non-compliant, GD3, 15 mg/day oral + imiglucerase
Protocol: Neurological function—was further evaluated using functional magnetic resonance imaging (fMRI). Patient 2 was excluded because no fMRI data was collected at the Week 52 session. Resting-state fMRI screening sessions were performed at baseline screening, Week 26, and Week 52 visits. Connectivity estimates from four subjects (Patients 1, 3, 4 and 5) were entered into second-level analyses as a “compliant” group. Patient 5 was isolated due to likely non-compliance with study medication, as described above. Analyses were performed as described elsewhere (Smith et al. [2009]).
Spatial analysis of the connectivity between different anatomic regions of the brain is performed to define a correlation coefficient for regressed voxelwise mean intensity.

[5] = Phase 1 Study 1 Part 1: ascending single-dose pharmacokinetics; conditions: healthy men, fasted
Excerpt: (§2) Study 1 was a 2-part single-center trial in healthy adult male volunteers.
Part 1 of the study enrolled and randomized 55 healthy men (placebo, n=14; 2-, 5-, 15, 25-, 50, and 100-mg doses, n=6 each; 150-mg dose, n=5). Eight healthy men participated in Part 2.
(§3) After a 7-day washout period, participants were crossed over to the other condition.

[6] = Phase 1 Study 1 Part 2: PK with and without a high-fat meal; conditions: healthy men, single oral 5 mg, fed vs fasting
Excerpt: as §2, §3

plasma GL-3 = assay: Fabry: matched comparison with historical phase 3 trial of agalsidase beta; conditions: Fabry males, 15 mg/day oral
Excerpt: Mean ages were similar across the three groups.

CC(C)(NC(=O)O[C@@H]1CN2CCC1CC2)c1csc(-c2ccc(F)cc2)n1 [Compound 2, (S)-quinuclidin-3-yl (2-(2-(4-fluorophenyl)thiazol-4-yl)propan-2-yl)carbamate]
Compound 2 in CSF, concentration 2-4 hours post dose (mean) ([1]; Day 1 (N = 6), GD3, 15 mg/day oral + imiglucerase): <LLOQ | time at which steady state concentration is reached in plasma and CSF ([1]; GD3, 15 mg/day oral + imiglucerase): ≤ 4 Week | Patient 5: lower concentrations of Compound 2 in plasma and CSF ([1]; Week 26, believed due to compliance or dosing errors): about 50% | Patient 5: concentrations of Compound 2 in plasma and CSF ([1]; Week 52, believed due to compliance or dosing errors): undetectable | crossing of the blood-brain barrier ([1]; all patients, GD3, 15 mg/day oral + imiglucerase): effectively cross the blood-brain barrier | AUC ([1]; 26-week interim, GD3, 15 mg/day oral + imiglucerase): 715 ± 225 ng·h/mL | AUC ([1]; 52-week interim, GD3, 15 mg/day oral + imiglucerase): 729 ± 205 ng·h/mL | VSEM measurements ([2]; between baseline and week 26): stable | changes in HSEM ([2]; over the 26-week treatment period): no clinically meaningful changes | TMT-A-TMT-B ([3]; Week 52, individual patients 1-6): 20 s | patients with a TMT-A reduction, excluding Patient 5 ([3]; Week 52): four of five | patients with a TMT-B reduction, excluding Patient 5 ([3]; Week 52): five of five | patients with a reduction in the (TMT B-TMT A) time ([3]; Week 52): 5 of 6 | patients with an improvement in Trail B minus Trial A, excluding Patient 5 ([3]; Week 52): four of five | patients with reduction in time taken to complete Trail A ([3]; Week 52): Four of six | patients with reduction in time taken to complete Trail B ([3]; Week 52): six of six | TMT-A-TMT-B, Change (%) from Baseline to Week 52 ([3]; individual patients 1-6): −72% and −43% | connectivity between the default mode (resting) network and the executive function network [4]: increased in Patients 1, 3, 4 and 6, but decreased in Patient 5 | CL/F, Geometric mean ([5]; single oral 2 mg): 6.3 L/h | CL/F, Geometric mean ([5]; single oral 5 mg): 5.8 L/h | CL/F, Geometric mean ([5]; single oral 15 mg): 5.6 L/h | CL/F, Geometric mean ([5]; single oral 25 mg): 5.0 L/h | CL/F, Geometric mean ([5]; single oral 50 mg): 5.5 L/h | CL/F, Geometric mean ([5]; single oral 100 mg): 5.3 L/h | CL/F, Geometric mean ([5]; single oral 150 mg): 5.6 L/h | CL/F, Mean ([5]; single oral 150 mg): 5.80 L/h | effect of a high-fat meal on Compound 2 exposure [6]: no effect | reduction in plasma GL-3 (plasma GL-3; 26 weeks, matched comparison to placebo (−1.06 μg/mL, P<0.0001)): -3.62 µg/mL | plasma GL-3 reduction compared to agalsidase beta (plasma GL-3; 104 weeks (p=0.0351) and 156 weeks (p=0.0081)): significantly greater
